Results taken from patent US6472227B1, “Barbiturate assay, tracers, immunogens, antibodies and kit” (Abbott Laboratories, priority 1986, dated 2002).

Key:
[1] = Tracer stability: polarization after storage in buffer or boric acid (Table 1); type: physicochemical; set-up: Polarization (Buffer): unit not given beside the values
Description: It was unexpectedly discovered that the presence of a carbon-carbon double bond between the fluorescein moiety and the barbiturate ring portions of the novel tracers of the present invention advantageously orients the tracer for optimal interaction with the antibody.

[2] = system: antibodies raised against an immunogen having the structure shown in FIG. 28; assay: Fluorescence polarization immunoassay cross-reactivity in drug-free normal human urine, tracer of FIG. 5; type: binding, sheep
Description: (§1) The antibodies of the present invention are prepared by eliciting a response in sheep to the immunogens described supra. The immunogen is administered to animals or to in vitro cultures of immunocompetent cells by a series of innoculations, in a manner well known to those skilled in the art.
(§2) The tracer formulation presently preferred is 150 nanomolar tracer in: 0.1 molar phosphate buffer at pH 6.2; 5% sodium 5-sulfosalicylate; 0.1% sodium azide; and 0.01% bovine gamma-globulin. The antiserum formulation comprises sheep serum diluted with: 0.1 molar tris buffer at pH 7.5; 0.1% sodium azide; 0.1% bovine gamma-globulin; and 2% ethylene glycol (volume/volume). The dilution buffer comprises: 0.1 molar sodium phosphate at pH 7.5; 0.1% sodium azide; and 0.01% bovine gamma-globulin. The pretreatment solution comprises: 0.01% bovine gamma-globulin; 0.1 molar tris buffer at pH 7.5; 0.1% sodium azide; and 10 mg/mL riboflavin binding protein.
(§3) A minimum of fifty microliters of urine is required. The calibrators, controls, or unknown samples are pipetted directly into the sample well of the TDx® or ADx® sample cartridge. […] The assay procedure from this point is fully automated.
(§4) If a manual assay is being performed, then the sample is mixed with the pretreatment solution in dilution buffer and a background reading is taken. The tracer and antibody are then mixed into the test solution. After incubation, a fluorescence polarization reading is taken.
(§5) The net fluorescence polarization value of each calibrator, control or sample is determined and is printed on the output tape of an instrument such as the Abbott TDx® Analyzer. […] The concentration of each control or sample is read off the stored calibration curve and printed on the output tape.
Cross-reactivity was tested by the method of the present invention for the commonly-used barbiturates. […]
The five columns indicate the following information:
In other words, when 200 ng of secobarbital were added to drug-free normal human urine, approximately 200 ng of secobarbital were detected in the resulting urine sample. Thus, the closer the factor is to 1.0, the more accurate the assay is with respect to the particular test compound analyzed.
The percent cross-reactivity value presented in column five was obtained by the following mathematical formula: [formula]
(§6) The five columns in Tables 4(a) and 4(b) indicate the same information as is described above for Table 3(a).

[3] = system: antibodies raised against an immunogen having the structure shown in FIG. 29; assay: Fluorescence polarization immunoassay cross-reactivity in drug-free normal human urine, tracer of FIG. 30; type: binding, sheep; details: for % CR / Conc. Found: tracer FIG. 30
Description: as §1, §2, §3, §4, §5
Cross-reactivity was tested by the method of the present invention for the commonly-used barbiturates. In each case, compounds were assayed on the Abbott Laboratories+ TDx® Clinical Analyzer or the ADx® Drugs of Abuse System after adding a known quantity (200 ng/mL) of the barbiturate test compound to drug-free normal human urine.
as §6

[4] = system: antibodies raised against an immunogen having the structure shown in FIG. 29; assay: Fluorescence polarization immunoassay cross-reactivity, tracer of FIG. 31; type: binding, sheep; details: tracer FIG. 31
Description: as §1

[5] = 200 ng/mL added to drug-free urine, secobarbital standard

## CCCC(C)C1(C/C=C/C(=O)NCc2c(O)ccc3c2Oc2cc(O)ccc2C32OC(=O)c3ccccc32)C(=O)NC(=O)NC1=O (stereo not shown) [drawing 9]
[1]; 2-8 °C, Day 0
  Polarization (Buffer): 239.63
[1]; 2-8 °C, Day 1
  Polarization (Buffer): 235.18
[1]; 2-8 °C, Day 7
  Polarization (Buffer): 235.08
[1]; 45 °C, Day 1
  Polarization (Buffer): 237.93
[1]; 45 °C, Day 7
  Polarization (Buffer): 239.72

## C=CCC1(C(C)CC)C(=O)NC(=O)NC1=O (stereo not shown) [Talbutal]
[2]; 200 ng/mL added
  factor which overestimates or underestimates the compound assayed for: 0.90
  percent cross reactivity: 90%
[2]; [5]
  amount of the test compound found in the resulting human urine: 180 ng/mL
[3]; 200 ng/mL added
  factor which overestimates or underestimates the compound assayed for: 2.65
  percent cross reactivity: 265%
[3]; [5]
  amount of the test compound found in the resulting human urine: 531 ng/mL
[3]; Conc. Added 1200 ng/mL
  % CR: >167%
[4]; Conc. Added 1200 ng/mL
  % CR: >167%

## O=C1NC(=O)C(c2ccccc2)(c2ccc(O)cc2)N1 (stereo not shown) [p-Hydroxy phenytoin]
[2]; 1 μg/mL added
  amount of the test compound found: ND (None detected: Concentration less than the sensitivity of the assay (60 ng/mL))
[2]; 10 μg/mL added
  amount of the test compound found: 340 ng/mL
  factor: 0.034
  percent cross reactivity: 3.40%
[2]; 100 μg/mL added
  amount of the test compound found: 1200 ng/mL
  factor: 0.012
  percent cross reactivity: 1.20%
[3]; 10 μg/mL added
  amount of the test compound found: ND (None detected: Concentration less than the sensitivity of the assay (60 ng/mL))
[3]; 100 μg/mL added
  amount of the test compound found: 101 ng/mL
  factor: 0.00010
  percent cross reactivity: 0.10%
[3]; 500 μg/mL added
  amount of the test compound found: 218 ng/mL
  factor: 0.00004
  percent cross reactivity: 0.04%
[3]; Conc. Added 500 (ng/mL)
  % CR: 0.001%
  Conc. Found: 200 ng/mL
[4]; Conc. Added 500 (ng/mL)
  % CR: 0.058%
  Conc. Found: 290 ng/mL

## CC(C(=O)O)c1cccc(Oc2ccccc2)c1 (stereo not shown) [Fenoprofen]
[2]; 215 μg/mL added
  amount of the test compound found: 180 ng/mL
  factor: 0.00084
  percent cross reactivity: 0.084%
[2]; 430 μg/mL added
  amount of the test compound found: 290 ng/mL
  factor: 0.00067
  percent cross reactivity: 0.067%
[3]; Conc. Added 200 (ng/mL)
  % CR: 0.015%
  Conc. Found: 30 ng/mL
[4]; Conc. Added 200 (ng/mL)
  % CR: 0.02%
  Conc. Found: 40 ng/mL

## O=C1NC(=O)C(c2ccccc2)(c2ccccc2)N1 [Phenytoin]
[2]; 1 μg/mL added
  amount of the test compound found: ND (None detected: Concentration less than the sensitivity of the assay (60 ng/mL))
[2]; 10 μg/mL added
  amount of the test compound found: 320 ng/mL
  factor: 0.032
  percent cross reactivity: 3.20%
[2]; 100 μg/mL added
  amount of the test compound found: 1020 ng/mL
  factor: 0.0102
  percent cross reactivity: 1.02%
[3]; Conc. Added 100 (ng/mL)
  % CR: 0.04%
  Conc. Found: 40 ng/mL
[4]; Conc. Added 100 (ng/mL)
  % CR: 0.09%
  Conc. Found: 90 ng/mL

## CCC1(c2ccccc2)CCC(=O)NC1=O (stereo not shown) [Glutethimide]
[2]; 1 μg/mL added
  amount of the test compound found: ND (None detected: Concentration less than the sensitivity of the assay (60 ng/mL))
[2]; 10 μg/mL added
  amount of the test compound found: 180 ng/mL
  factor: 0.018
  percent cross reactivity: 1.80%
[3]; 1 μg/mL added
  amount of the test compound found: 89 ng/mL
  factor: 0.089
  percent cross reactivity: 8.90%
[3]; 10 μg/mL added
  amount of the test compound found: 480 ng/mL
  factor: 0.048
  percent cross reactivity: 4.80%
[3]; Conc. Added 10 (ng/mL)
  % CR: 4.70%
  Conc. Found: 470 ng/mL
[4]; Conc. Added 10 (ng/mL)
  % CR: 4.70%
  Conc. Found: 470 ng/mL

## CCCC(C)C1(CC(=O)NCc2c(O)ccc3c2Oc2cc(O)ccc2C32OC(=O)c3ccccc32)C(=O)NC(=O)NC1=O (stereo not shown)
[1]; 2-8 °C, Day 0
  Polarization (Boric Acid): 269.39
  Polarization (Buffer): 247.79
[1]; 2-8 °C, Day 1
  Polarization (Boric Acid): 271.12
  Polarization (Buffer): 238.09
[1]; 2-8 °C, Day 7
  Polarization (Boric Acid): 228.62
  Polarization (Buffer): 168.21
[1]; 45 °C, Day 1
  Polarization (Boric Acid): 62.68
  Polarization (Buffer): 48.70
[1]; 45 °C, Day 7
  Polarization (Boric Acid): > 68.68
  Polarization (Buffer): > 48.70
